Measurements published in ChEMBL document CHEMBL1201862, “PubChem BioAssay data set” (2004).
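Growth conditions: 96-well plates. Treatment: test compound, 48 hours, 5 concentrations. Analysis: linear interpolation between bracketing concentrations; unreached endpoints set to highest concentration. GI50 is the concentration that inhibits growth by half.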 Calls of active or inactive are those of the source. Cut-off read from the data, not from the text of the source: active = GI50 up to about 1.1 µM and inactive = higher.

Experiments:
Test in all cases: NCI anticancer screen, dose series, 48 h
UO-31 = test system: UO-31
HT-29 = test system: HT-29
OVCAR-4 = test system: OVCAR-4
NCI-H226 = test system: NCI-H226
SNB-75 = test system: SNB-75
KM12 = test system: KM12
RXF 393 = test system: RXF 393
EKVX = test system: EKVX
M14 = test system: M14
A498 = test system: A498
CAKI-1 = test system: CAKI-1
786-0 = test system: 786-0
SK-MEL-28 = test system: SK-MEL-28
HCT-15 = test system: HCT-15
SR = test system: SR
U-251 = test system: U-251

Compound | GI50 (UO-31) | GI50 (HT-29) | GI50 (OVCAR-4) | GI50 (NCI-H226) | GI50 (SNB-75) | GI50 (KM12) | GI50 (RXF 393) | GI50 (EKVX) | GI50 (M14) | GI50 (A498) | GI50 (CAKI-1) | GI50 (786-0) | GI50 (SK-MEL-28) | GI50 (HCT-15) | GI50 (SR) | GI50 (U-251)
O=C(CCn1[nH]c(=O)c(Cl)c(Cl)c1=O)NNC(=O)C[n+]1ccccc1 | > 100 µM (inactive) | > 100 µM (inactive) | > 100 µM (inactive) | > 100 µM (inactive) | 52.4 µM (inactive) | > 100 µM (inactive) | > 100 µM (inactive) | > 100 µM (inactive) | > 100 µM (inactive) | > 100 µM (inactive) | > 100 µM (inactive) | > 100 µM (inactive) | > 100 µM (inactive) | > 100 µM |  | 
CN(C)CCNC(=O)Cc1ccccc1Nc1c(Cl)cccc1Cl | 12.6 µM (inactive) | 10.3 µM (inactive) | 20.1 µM (inactive) | 17.9 µM (inactive) | 12.7 µM (inactive) | 18.5 µM (inactive) | 15.3 µM (inactive) | 17.4 µM (inactive) | 17.3 µM (inactive) |  |  | 12.2 µM (inactive) | 18.5 µM (inactive) | 15.6 µM | 15.2 µM (inactive) | 10.9 µM (inactive)
O=c1[nH]cc(C(F)(C(F)(F)F)C(F)(F)F)c(=O)[nH]1 | > 100 µM (inactive) | > 100 µM (inactive) | > 100 µM (inactive) | > 100 µM (inactive) | > 100 µM (inactive) | > 100 µM (inactive) | > 100 µM (inactive) | > 100 µM (inactive) | > 100 µM (inactive) | > 100 µM (inactive) | > 100 µM (inactive) | > 100 µM (inactive) | > 100 µM (inactive) | > 100 µM |  | > 100 µM (inactive)
COc1ccc(O)c(C#N)c1C#N | > 100 µM (inactive) | > 100 µM (inactive) | > 100 µM (inactive) | > 100 µM (inactive) | > 100 µM (inactive) | > 100 µM (inactive) | > 100 µM (inactive) | > 100 µM (inactive) | > 100 µM (inactive) | > 100 µM (inactive) | > 100 µM (inactive) | > 100 µM (inactive) |  | > 100 µM |  | > 100 µM (inactive)
Cn1nc(-c2ccccc2)c(C(=O)/C=C/c2ccc(F)cc2)c(N2CCCCC2)c1=O | 5.58 µM (inactive) | 5.32 µM (inactive) |  |  |  |  | 2.53 µM (inactive) | 16.3 µM (inactive) | 5.93 µM (inactive) |  | 8.75 µM (inactive) | 4.62 µM (inactive) | 3.79 µM (inactive) | 5.06 µM |  | 5.74 µM (inactive)
O=C(O)CN(c1ccccc1)S(=O)(=O)c1ccc(NC(=O)c2ccccc2)cc1 | > 100 µM (inactive) | > 10 µM (inactive) | > 100 µM (inactive) |  | > 100 µM (inactive) |  | > 100 µM (inactive) | > 100 µM (inactive) | > 100 µM (inactive) | > 100 µM (inactive) | > 100 µM (inactive) | > 100 µM (inactive) | > 100 µM (inactive) | > 100 µM |  | > 100 µM (inactive)
COC(=O)C1CC/C(=N/c2ccc(C)cc2C)N1 (centres undefined) | > 100 µM (inactive) | > 100 µM (inactive) | > 100 µM (inactive) | > 100 µM (inactive) | 99.3 µM (inactive) | > 100 µM (inactive) |  | > 100 µM (inactive) | > 100 µM (inactive) | > 100 µM (inactive) | > 100 µM (inactive) | > 100 µM (inactive) | > 100 µM (inactive) | > 100 µM |  | > 100 µM (inactive)
COC(=O)c1c[nH]cc1CCc1c[nH]cc1C(=O)OC |  | > 100 µM (inactive) | > 100 µM (inactive) | > 100 µM (inactive) |  | > 100 µM (inactive) | 27.2 µM (inactive) | > 100 µM (inactive) |  | 48.2 µM (inactive) | > 100 µM (inactive) | > 100 µM (inactive) | > 100 µM (inactive) | > 100 µM | > 100 µM (inactive) | > 100 µM (inactive)
COC(=O)c1c(-c2cc(OC)c(OC)c(OC)c2)oc2ccccc2c1=O | 66.4 µM (inactive) | > 100 µM (inactive) | 68.4 µM (inactive) | > 100 µM (inactive) | 58.7 µM (inactive) | > 100 µM (inactive) | 53.6 µM (inactive) | > 100 µM (inactive) | > 100 µM (inactive) | > 100 µM (inactive) | 75.3 µM (inactive) | > 100 µM (inactive) |  | 15.4 µM |  | 87.3 µM (inactive)
CN(C)/C(F)=P\C(F)(F)F (centres undefined) | > 100 µM (inactive) | > 100 µM (inactive) | > 100 µM (inactive) | > 100 µM (inactive) | > 100 µM (inactive) | > 100 µM (inactive) | > 100 µM (inactive) | > 100 µM (inactive) | > 100 µM (inactive) | > 100 µM (inactive) | > 100 µM (inactive) | > 100 µM (inactive) | > 100 µM (inactive) | > 100 µM |  | > 100 µM (inactive)
CC(C)NCC(O)COC(=O)c1cccs1 (centres undefined) | > 100 µM (inactive) | > 100 µM (inactive) | > 100 µM (inactive) |  | 67.8 µM (inactive) | > 100 µM (inactive) | > 100 µM (inactive) | > 100 µM (inactive) | > 100 µM (inactive) |  | > 100 µM (inactive) | > 100 µM (inactive) | > 100 µM (inactive) | > 100 µM |  | 
CN1C(=O)C(=O)N2c3ccc(Cl)cc3C3(c4ccccc4)N=CC12O3 (centres undefined) | 4.1 µM (inactive) | 4.55 µM (inactive) | 2.11 µM (inactive) | 10.1 µM (inactive) | 3.6 µM (inactive) | 3.55 µM (inactive) | 1.9 µM (inactive) | 8.87 µM (inactive) | 3.21 µM (inactive) | 10.8 µM (inactive) | 5.13 µM (inactive) | 6.95 µM (inactive) | 3.44 µM (inactive) | 3.24 µM |  | 9.48 µM (inactive)
c1ccc(Nc2nnc(CSc3nc(-c4ccccc4)c(-c4ccccc4)[nH]3)s2)cc1 | 13.3 µM (inactive) | 15.2 µM (inactive) | 27 µM (inactive) | 14.9 µM (inactive) | 44.4 µM (inactive) | 21.1 µM (inactive) |  | 19.4 µM (inactive) | 14.7 µM (inactive) | 26.5 µM (inactive) |  | 18.2 µM (inactive) | 24.2 µM (inactive) | 18.1 µM | 20.6 µM (inactive) | 13.7 µM (inactive)
C[C@@H]1C(=O)CC2C(C)(C)CCC[C@]2(C)[C@@]12CC[C@]1(C=COC1)O2 (some centres undefined) | 29.9 µM (inactive) | 28.2 µM (inactive) | 43.8 µM (inactive) | 91 µM (inactive) |  | 39.4 µM (inactive) | 16 µM (inactive) | 42.9 µM (inactive) | 29.4 µM (inactive) |  | 64.3 µM (inactive) | 33.3 µM (inactive) |  | 30.5 µM | 22 µM (inactive) | 
Cc1ccc(NC(=O)CCC(=O)C(C#N)c2ccc(Cl)cc2)cc1C (centres undefined) | > 100 µM (inactive) | > 100 µM (inactive) | > 100 µM (inactive) | > 100 µM (inactive) | > 100 µM (inactive) | > 100 µM (inactive) | > 100 µM (inactive) | > 100 µM (inactive) | > 100 µM (inactive) | > 100 µM (inactive) | > 100 µM (inactive) | > 100 µM (inactive) | > 100 µM (inactive) | > 100 µM |  | > 100 µM (inactive)
